Our source for the IC50 values is US8871767B2, “2-arylimidazo[1,2-B]pyridazine, 2-phenylimidazo[1,2-A]pyridine, and 2-phenylimidazo[1,2-A]pyrazine derivatives” (Hengrui (USA) Ltd., priority 2010, dated 2014).

Read-outs that look alike come from different tables or passages of the source.

Assay [1] concerns Hedgehog pathway activation on 10T1/2/Smo#3 cells (C3H10T1/2 cells transfected with human Smoothened receptor). The assay is described as follows: Hedgehog pathway activation on 10T1/2/Smo#3 cells measured by ALP activity. The class given is cell-based. The conditions noted are these: Mus musculus, C3H 10T1/2, 10T1/2/Smo#3 cells. In a few lines: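 C3H10T1/2 cells stably expressing human Smoothened were activated with hShh-conditioned medium (10-20%) or 500 nM SAG, with test compounds present. Pathway block read as inhibited ALP activity (4-methylumbelliferyl phosphate fluorescence); viability checked by CellTiter-Blue. IC50 values reported.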

For assay [2], the system named is Hedgehog pathway activation (GLi-luciferase reporter) in Shh Light II reporter cells. In words: Hedgehog pathway activation on Shh Light II reporter cells measured by luciferase activity. The format is cell-based. The conditions noted are these: Mus musculus, Shh Light II. In a few lines: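 Shh Light II reporter cells carrying a hedgehog-responsive GLi-luciferase reporter were stimulated either with 500 nM SAG, a direct Smoothened agonist, or with conditioned media containing human Sonic Hedgehog (hShh). Test compounds were evaluated for blocking this pathway activation, quantified by luciferase activity. Cell viability was monitored in parallel with the Celltiter-Blue® assay.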

Setting [3] is: measured by ALP activity, read-out: ALP (IC50, inhibition of Hedgehog pathway activation).
[4] abbreviates: hShh activation, read-out: Shh (IC50, inhibition of Hedgehog pathway activation).
Setting [5] is: hShh activation, ALP activity, read-out: 10T1/2/Smo#3 ALP activity (hShh Activation).
[6] abbreviates: SAG activation (500 nM SAG), read-out: Shh Light II luciferase activity (SAG activation).
Where [7] appears, read: hShh activation, read-out: Shh Light II luciferase activity (hShh activation).

With `CC(C)(C)C(=O)Nc1cc(-c2cn3nc(C4CCCC4)ccc3n2)ccc1C(F)(F)F` [Example 133, N-(5-(6-cyclopentylimidazo[1,2-b]pyridazin-2-yl)-2-(trifluoromethyl)phenyl)pivalamide], the IC50 in assay [1] (setting [3]) came out at 0.849 µM; in assay [2] (setting [4]), 0.487 µM.

For the compound `Cc1c(-c2ccccc2)nc2ccc(N3CCN(Cc4ccc(F)cc4)CC3)nn12` [Example 134, 6-(4-(4-fluorobenzyl)piperazin-1-yl)-3-methyl-2-phenylimidazo[1,2-b]pyridazine], the IC50 in assay [1] (setting [5]) is below 0.3 µM; in assay [1] (setting [3]) it was 0.232 µM; in assay [2] (setting [6]), 0.3 to 3 µM; in assay [2] (setting [4]) it was 0.926 µM; in assay [2] (setting [7]) it was 0.3 to 3 µM.

Regarding `CSc1ccc2nc(-c3ccc(C(F)(F)F)c(NC(=O)C(C)(C)C)c3)cn2n1` [Example 135, N-(5-(6-(methylthio)imidazo[1,2-b]pyridazin-2-yl)-2-(trifluoromethyl)phenyl)pivalamide], the IC50 in assay [1] (setting [3]) worked out at 5.23 µM; in assay [2] (setting [4]), 1.25 µM.

Turning to `CCOc1ccc2nc(-c3ccc(C(F)(F)F)c(NC(=O)C(C)(C)C)c3)cn2n1` [Example 136, N-(5-(6-ethoxyimidazo[1,2-b]pyridazin-2-yl)-2-(trifluoromethyl)phenyl)pivalamide], the IC50 in assay [1] (setting [3]) turned out to be 0.452 µM; in assay [2] (setting [4]) it was 0.158 µM.

Turning to `CNc1ccc2nc(-c3ccc(C(F)(F)F)c(NC(=O)C(C)(C)C)c3)cn2n1` [Example 137, N-(5-(6-(methylamino)imidazo[1,2-b]pyridazin-2-yl)-2-(trifluoromethyl)phenyl)pivalamide], the IC50 in assay [1] (setting [5]) was 0.3 to 3 µM; in assay [1] (setting [3]) it was 0.995 µM; in assay [2] (setting [6]) it was 0.3 to 3 µM; in assay [2] (setting [4]) it was 0.623 µM; in assay [2] (setting [7]), 0.3 to 3 µM.

Take `CN(C)c1ccc2nc(-c3ccc(C(F)(F)F)c(NC(=O)C(C)(C)C)c3)cn2n1` [Example 138, N-(5-(6-(dimethylamino)imidazo[1,2-b]pyridazin-2-yl)-2-(trifluoromethyl)phenyl)pivalamide]: the results for the IC50 in assay [1] (setting [3]) and in assay [2] (setting [4]) were 2.17 µM and 3.45 µM, respectively.

Regarding `CC(C)(C)C(=O)Nc1cc(-c2cn3nc(C4CC4)ccc3n2)ccc1C(F)(F)F` [Example 139, N-(5-(6-cyclopropylimidazo[1,2-b]pyridazin-2-yl)-2-(trifluoromethyl)phenyl)pivalamide], the IC50 in assay [1] (setting [3]) was determined as 0.451 µM; in assay [2] (setting [4]), 0.186 µM.

As for `CC(C)c1ccc2nc(-c3ccc(C(F)(F)F)c(NC(=O)C(C)(C)C)c3)cn2n1` [Example 140, N-(5-(6-isopropylimidazo[1,2-b]pyridazin-2-yl)-2-(trifluoromethyl)phenyl)pivalamide], the IC50 came to 0.314 µM in assay [1] (setting [3]) and 0.721 µM in assay [2] (setting [4]).

As for `CC(C)(C)C(=O)Nc1cc(-c2cn3nc(-c4ccccn4)ccc3n2)ccc1C(F)(F)F` [Example 141, N-(5-(6-(pyridin-2-yl)imidazo[1,2-b]pyridazin-2-yl)-2-(trifluoromethyl)phenyl)pivalamide], the IC50 in assay [1] (setting [5]) was 3 to 30 µM; in assay [1] (setting [3]), 9.06 µM; in assay [2] (setting [6]) it was below 0.3 µM; in assay [2] (setting [4]), 0.26 µM; in assay [2] (setting [7]), below 0.3 µM.

Regarding `Cc1ccc2nc(-c3ccc(C(F)(F)F)c(NC(=O)C(C)(C)C)c3)cn2n1` [Example 142, N-(5-(6-methylimidazo[1,2-b]pyridazin-2-yl)-2-(trifluoromethyl)phenyl)pivalamide], the values for the IC50 in assay [1] (setting [3]) and in assay [2] (setting [4]) were 0.365 µM and 1.41 µM, respectively.

Turning to `CC(C)(C)C(=O)Nc1cc(-c2cn3nc(-c4ccc(F)cc4)ccc3n2)ccc1C(F)(F)F` [Example 143, N-(5-(6-(4-fluorophenyl)imidazo[1,2-b]pyridazin-2-yl)-2-(trifluoromethyl)phenyl)pivalamide], the IC50 came out at 2.69 µM in assay [1] (setting [3]) and 0.466 µM in assay [2] (setting [4]).

As for `Fc1ccc(CN2CCN(c3ccc4nc(-c5ccccc5)c(Cl)n4n3)CC2)cc1` [Example 144, 3-chloro-6-(4-(4-fluorobenzyl)piperazin-1-yl)-2-phenylimidazo[1,2-b]pyridazine], the IC50 was 3 to 30 µM in assay [1] (setting [5]); 3.97 µM in assay [1] (setting [3]); 3 to 30 µM in assay [2] (setting [6]); above 10 µM in assay [2] (setting [4]); 3 to 30 µM in assay [2] (setting [7]).

For `Cc1c(-c2ccccc2)nc2ccc(N3CCNCC3)nn12` [Example 145, 3-methyl-2-phenyl-6-(piperazin-1-yl)imidazo[1,2-b]pyridazine], the IC50 in assay [1] (setting [5]) was 3 to 30 µM; in assay [1] (setting [3]) it was 4.78 µM; in assay [2] (setting [6]) it was 3 to 30 µM; in assay [2] (setting [4]), 5.44 µM; in assay [2] (setting [7]), 3 to 30 µM.

As to `Fc1ccc(CN2CCN(c3ccc4nc(-c5ccc(F)cc5)c(Br)n4n3)CC2)cc1` [Example 146, 3-bromo-6-(4-(4-fluorobenzyl)piperazin-1-yl)-2-(4-fluorophenyl)imidazo[1,2-b]pyridazine], the IC50 in assay [1] (setting [3]) is 6.98 µM; in assay [2] (setting [4]), above 10 µM.

As to `COc1cccc(-c2ccc3nc(-c4ccc(C(F)(F)F)c(NC(=O)C(C)(C)C)c4)cn3n2)n1` [Example 147, N-(5-(6-(6-methoxypyridin-2-yl)imidazo[1,2-b]pyridazin-2-yl)-2-(trifluoromethyl)phenyl)pivalamide], the IC50 was above 10 µM in assay [1] (setting [3]) and 1.04 µM in assay [2] (setting [4]).

In the case of `CC(C)(C)C(=O)Nc1cc(-c2cn3nc(-c4nccs4)ccc3n2)ccc1C(F)(F)F` [Example 148, N-(5-(6-(thiazol-2-yl)imidazo[1,2-b]pyridazin-2-yl)-2-(trifluoromethyl)phenyl)pivalamide], the IC50 in assay [1] (setting [5]) was 0.3 to 3 µM; in assay [1] (setting [3]), 1.94 µM; in assay [2] (setting [6]) it was 0.3 to 3 µM; in assay [2] (setting [4]) it was 0.608 µM; in assay [2] (setting [7]), 0.3 to 3 µM.

Turning to `Cc1cccc(-c2ccc3nc(-c4ccc(C(F)(F)F)c(NC(=O)C(C)(C)C)c4)cn3n2)n1` [Example 149, N-(5-(6-(6-methylpyridin-2-yl)imidazo[1,2-b]pyridazin-2-yl)-2-(trifluoromethyl)phenyl)pivalamide], the IC50 is 0.3 to 3 µM in assay [1] (setting [5]); 1.75 µM in assay [1] (setting [3]); 0.3 to 3 µM in assay [2] (setting [6]); 1.02 µM in assay [2] (setting [4]); 0.3 to 3 µM in assay [2] (setting [7]).

`Cc1ccc(-c2ccc3nc(-c4ccc(C(F)(F)F)c(NC(=O)C(C)(C)C)c4)cn3n2)nc1` [Example 150, N-(5-(6-(5-methylpyridin-2-yl)imidazo[1,2-b]pyridazin-2-yl)-2-(trifluoromethyl)phenyl)pivalamide]: the IC50 in assay [1] (setting [3]) was 2.74 µM; in assay [2] (setting [4]), 1.28 µM.

With `Cc1ccnc(-c2ccc3nc(-c4ccc(C(F)(F)F)c(NC(=O)C(C)(C)C)c4)cn3n2)c1` [Example 151, N-(5-(6-(4-methylpyridin-2-yl)imidazo[1,2-b]pyridazin-2-yl)-2-(trifluoromethyl)phenyl)pivalamide], the IC50 in assay [1] (setting [3]) worked out at 1.81 µM; in assay [2] (setting [4]), 0.899 µM.

Take `Cc1cccnc1-c1ccc2nc(-c3ccc(C(F)(F)F)c(NC(=O)C(C)(C)C)c3)cn2n1` [Example 152, N-(5-(6-(3-methylpyridin-2-yl)imidazo[1,2-b]pyridazin-2-yl)-2-(trifluoromethyl)phenyl)pivalamide]: the IC50 came to 0.59 µM in assay [1] (setting [3]) and 0.314 µM in assay [2] (setting [4]).

Take `CC(C)(C)C(=O)Nc1cc(-c2cn3nc(-c4cccnc4)ccc3n2)ccc1C(F)(F)F` [Example 153, N-(5-(6-(pyridin-3-yl)imidazo[1,2-b]pyridazin-2-yl)-2-(trifluoromethyl)phenyl)pivalamide]: the IC50 was 0.3 to 3 µM in assay [1] (setting [5]); 0.41 µM in assay [1] (setting [3]); 0.3 to 3 µM in assay [2] (setting [6]); 0.264 µM in assay [2] (setting [4]); below 0.3 µM in assay [2] (setting [7]).

`Cc1c(-c2ccccc2)nc2ccc(N3CCN(C(=O)c4ccccc4)CC3)nn12` [Example 154, (4-(3-methyl-2-phenylimidazo[1,2-b]pyridazin-6-yl)piperazin-1-yl)(phenyl)methanone]: the IC50 turned out to be 2.89 µM in assay [1] (setting [3]) and 3.4 µM in assay [2] (setting [4]).

With `Cc1c(-c2ccccc2)nc2ccc(N3CCN(C(=O)Cc4ccccc4)CC3)nn12` [Example 155, 1-(4-(3-methyl-2-phenylimidazo[1,2-b]pyridazin-6-yl)piperazin-1-yl)-2-phenylethanone], the IC50 in assay [1] (setting [5]) was 0.3 to 3 µM; in assay [1] (setting [3]), 1.27 µM; in assay [2] (setting [6]), below 0.3 µM; in assay [2] (setting [4]), 2.1 µM; in assay [2] (setting [7]) it was 0.3 to 3 µM.

Consider `Cc1c(-c2ccccc2)nc2ccc(N3CCN(C(=O)CCc4ccccc4)CC3)nn12` [Example 156, 1-(4-(3-methyl-2-phenylimidazo[1,2-b]pyridazin-6-yl)piperazin-1-yl)-3-phenylpropan-1-one], for which the values for the IC50 in assay [1] (setting [3]) and in assay [2] (setting [4]) were 8.84 µM and 3.43 µM, respectively.

As to `Cc1c(-c2ccccc2)nc2ccc(N3CCN(C(=O)CC(C)(C)C)CC3)nn12` [Example 157, 3,3-dimethyl-1-(4-(3-methyl-2-phenylimidazo[1,2-b]pyridazin-6-yl)piperazin-1-yl)butan-1-one], the IC50 is above 10 µM in assay [1] (setting [3]) and 1.95 µM in assay [2] (setting [4]).

`Cc1c(-c2ccccc2)nc2ccc(N3CCN(C(=O)OC(C)(C)C)CC3)nn12` [Example 158, tert-butyl 4-(3-methyl-2-phenylimidazo[1,2-b]pyridazin-6-yl)piperazine-1-carboxylate]: the IC50 was 3 to 30 µM in assay [1] (setting [5]); 7.34 µM in assay [1] (setting [3]); 0.3 to 3 µM in assay [2] (setting [6]); 0.847 µM in assay [2] (setting [4]); 3 to 30 µM in assay [2] (setting [7]).
